In US20020051978A1, “Methods and compositions for the identification, assessment, prevention and therapy of human cancers” (priority 2000, published 2002):
Where two headings read alike, the source gives them in different places.

What was measured:
[1] = tested on: 60 cancer cell lines (NCI 60 cancer cell line series); conditions: cited from earlier work
[2] = tested on: 60 cancer cell lines (NCI 60 cancer cell line series); experiment: NCI-DTP in vitro cancer screen, sulforhodamine B (SRB) growth inhibition, 48 hour exposure; assay type: cell-based, human; set-up: key to sensitivity class Ovarian OVCAR-8 CL6005 / sensitivity class Ovarian SK-OV-3 CL6011 / sensitivity class Prostate DU-145 CL11003 / sensitivity class NSCLC NCI-H522 CL1003 / sensitivity class Ovarian IGROV1 CL6010 / sensitivity class Ovarian OVCAR-4 CL6002 / sensitivity class Prostate PC-3(I) CL11001 / sensitivity class Renal A498 CL9013 / sensitivity class Renal SN12C CL9008: sensitivity class: 1 = Low, 2 = Medium, 3 = High
In short: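 Values come from the NCI-DTP screen database: -log GI50, the concentration giving 50% growth inhibition, derived from SRB cell-mass dose-response curves. Each line seeded at its own density, treated day 1 at five ten-fold-spaced doses in duplicate wells, stained after 48 h.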

NC(=O)NO [Hydroxyurea]
-Log (GI50) ([1]; Breast BT-549 (CL5013)): 2.8
-Log (GI50) ([1]; Breast HS-578T CL5006): 3.1
-Log (GI50) ([1]; Breast MCF7(I) (CL5001)): 3.5
-Log (GI50) ([1]; Breast MCF7/ADRr (CL5002)): 3.5
-Log (GI50) ([1]; Breast MDA-MB-231 CL5005): 2.6
-Log (GI50) ([1]; Breast MDA-MB-435 (CL5011)): 2.7
-Log (GI50) ([1]; Breast MDA-N CL5012): 2.7
-Log (GI50) ([1]; Breast T-47D (CL5014)): 2.8
-Log (GI50) ([1]; CNS SF-268 CL12014): 3.3
-Log (GI50) ([1]; CNS SF-295 CL12015): 3.5
-Log (GI50) ([1]; CNS SF-539 CL12016): 3.5
-Log (GI50) ([1]; CNS SNB-19 (CL12002)): 2.8
-Log (GI50) ([1]; CNS SNB-75(I) CL12005): 3.1
-Log (GI50) ([1]; CNS U251(I) CL12009): 3.3
-Log (GI50) ([1]; Colon COLO-250 CL4010): 2.8
-Log (GI50) ([1]; Colon HCC-2998 (CL4002)): 3.1
-Log (GI50) ([1]; Colon HCT-15 CL4015): 3.1
-Log (GI50) ([1]; Colon HCT-116 (CL4003)): 3.0
-Log (GI50) ([1]; Colon HT29(I) CL4001): 3.3
-Log (GI50) ([1]; Colon KM12 (CL4017)): 3.1
-Log (GI50) ([1]; Colon SW-620 (CL4009)): 3.0
-Log (GI50) ([1]; Leukemia CCRF-CEM(I) (CL7003)): 4.3
-Log (GI50) ([1]; Leukemia HL-60(I) (CL7008)): 4.7
-Log (GI50) ([1]; Leukemia K562(I) CL7005): 3.0
-Log (GI50) ([1]; Leukemia MOLT-4 (CL7006)): 3.8
-Log (GI50) ([1]; Leukemia RPMI-8226(I) (CL7010)): 3.6
-Log (GI50) ([1]; Leukemia SR CL7019): 3.7
-Log (GI50) ([1]; Melanoma LOX IMVI CL10001): 3.2
-Log (GI50) ([1]; Melanoma M14 (CL10014)): 3.2
-Log (GI50) ([1]; Melanoma MALME-3M CL10002): 2.9
-Log (GI50) ([1]; Melanoma SK-MEL-2 (CL10005)): 2.8
-Log (GI50) ([1]; Melanoma SK-MEL-5 (CL10007)): 3.2
-Log (GI50) ([1]; Melanoma SK-MEL-28 (CL10008)): 2.7
-Log (GI50) ([1]; Melanoma UACC-62 (CL10020)): 3.6
-Log (GI50) ([1]; Melanoma UACC-257 (CL10021)): 2.8
-Log (GI50) ([1]; NCSLC NCI-H522 CL1003): 3.1
-Log (GI50) ([1]; NSCLC A549/ATCC (CL1004)): 3.3
-Log (GI50) ([1]; NSCLC EKVX (CL1008)): 2.8
-Log (GI50) ([1]; NSCLC HOP-62 (CL1026)): 3.0
-Log (GI50) ([1]; NSCLC HOP-92 (CL1029)): 3.1
-Log (GI50) ([1]; NSCLC NCI-H23(I) CL1001): 3.1
-Log (GI50) ([1]; NSCLC NCI-H226 CL1013): 3.1
-Log (GI50) ([1]; NSCLC NCI-H332M CL1017): 2.8
-Log (GI50) ([1]; NSCLC NCI-H460 CL1021): 3.5
-Log (GI50) ([1]; Ovarian IGROV1 CL6010): 3.0
-Log (GI50) ([1]; Ovarian OVCAR-3 CL6001): 3.0
-Log (GI50) ([1]; Ovarian OVCAR-4 CL6002): 2.8
-Log (GI50) ([1]; Ovarian OVCAR-5 CL6003): 3.2
-Log (GI50) ([1]; Ovarian OVCAR-8 CL6005): 3.3
-Log (GI50) ([1]; Ovarian SK-OV-3 CL6011): 2.8
-Log (GI50) ([1]; Prostate DU-145 CL11003): 3.1
-Log (GI50) ([1]; Prostate PC-3(I) CL11001): 3.0
-Log (GI50) ([1]; Renal 786-O CL9018): 3.5
-Log (GI50) ([1]; Renal A498 CL9013): 3.2
-Log (GI50) ([1]; Renal ACHN CL9023): 4.0
-Log (GI50) ([1]; Renal CAKI-1 CL9015): 3.6
-Log (GI50) ([1]; Renal RXF-393 CL9016): 3.2
-Log (GI50) ([1]; Renal SN12C CL9008): 3.1
-Log (GI50) ([1]; Renal TK10 CL9024): 2.7
-Log (GI50) ([1]; Renal UO-31 CL9004): 3.3
classification of cell line as Low(1), Medium(2) or High(3) sensitivity to compound ([2]; Breast BT-549 (CL5013)): 1
classification of cell line as Low(1), Medium(2) or High(3) sensitivity to compound ([2]; Breast HS-578T CL5006): 2
classification of cell line as Low(1), Medium(2) or High(3) sensitivity to compound ([2]; Breast MCF7(I) (CL5001)): 2
classification of cell line as Low(1), Medium(2) or High(3) sensitivity to compound ([2]; Breast MCF7/ADRr (CL5002)): 2
classification of cell line as Low(1), Medium(2) or High(3) sensitivity to compound ([2]; Breast MDA-MB-231 CL5005): 1
classification of cell line as Low(1), Medium(2) or High(3) sensitivity to compound ([2]; Breast MDA-MB-435 (CL5011)): 1
classification of cell line as Low(1), Medium(2) or High(3) sensitivity to compound ([2]; Breast MDA-N CL5012): 1
classification of cell line as Low(1), Medium(2) or High(3) sensitivity to compound ([2]; Breast T-47D (CL5014)): 1
classification of cell line as Low(1), Medium(2) or High(3) sensitivity to compound ([2]; CNS SF-268 CL12014): 2
classification of cell line as Low(1), Medium(2) or High(3) sensitivity to compound ([2]; CNS SF-295 CL12015): 3
classification of cell line as Low(1), Medium(2) or High(3) sensitivity to compound ([2]; CNS SF-539 CL12016): 3
classification of cell line as Low(1), Medium(2) or High(3) sensitivity to compound ([2]; CNS SNB-19 (CL12002)): 1
classification of cell line as Low(1), Medium(2) or High(3) sensitivity to compound ([2]; CNS SNB-75(I) CL12005): 2
classification of cell line as Low(1), Medium(2) or High(3) sensitivity to compound ([2]; CNS U251(I) CL12009): 2
classification of cell line as Low(1), Medium(2) or High(3) sensitivity to compound ([2]; Colon COLO-250 CL4010): 1
classification of cell line as Low(1), Medium(2) or High(3) sensitivity to compound ([2]; Colon HCC-2998 (CL4002)): 2
classification of cell line as Low(1), Medium(2) or High(3) sensitivity to compound ([2]; Colon HCT-15 CL4015): 2
classification of cell line as Low(1), Medium(2) or High(3) sensitivity to compound ([2]; Colon HCT-116 (CL4003)): 2
classification of cell line as Low(1), Medium(2) or High(3) sensitivity to compound ([2]; Colon HT29(I) CL4001): 2
classification of cell line as Low(1), Medium(2) or High(3) sensitivity to compound ([2]; Colon KM12 (CL4017)): 2
classification of cell line as Low(1), Medium(2) or High(3) sensitivity to compound ([2]; Colon SW-620 (CL4009)): 2
classification of cell line as Low(1), Medium(2) or High(3) sensitivity to compound ([2]; Leukemia CCRF-CEM(I) (CL7003)): 3
classification of cell line as Low(1), Medium(2) or High(3) sensitivity to compound ([2]; Leukemia HL-60(I) (CL7008)): 3
classification of cell line as Low(1), Medium(2) or High(3) sensitivity to compound ([2]; Leukemia K562(I) CL7005): 2
classification of cell line as Low(1), Medium(2) or High(3) sensitivity to compound ([2]; Leukemia MOLT-4 (CL7006)): 3
classification of cell line as Low(1), Medium(2) or High(3) sensitivity to compound ([2]; Leukemia RPMI-8226(I) (CL7010)): 3
classification of cell line as Low(1), Medium(2) or High(3) sensitivity to compound ([2]; Leukemia SR CL7019): 3
classification of cell line as Low(1), Medium(2) or High(3) sensitivity to compound ([2]; Melanoma LOX IMVI CL10001): 2
classification of cell line as Low(1), Medium(2) or High(3) sensitivity to compound ([2]; Melanoma M14 (CL10014)): 2
classification of cell line as Low(1), Medium(2) or High(3) sensitivity to compound ([2]; Melanoma MALME-3M CL10002): 2
classification of cell line as Low(1), Medium(2) or High(3) sensitivity to compound ([2]; Melanoma SK-MEL-2 (CL10005)): 1
classification of cell line as Low(1), Medium(2) or High(3) sensitivity to compound ([2]; Melanoma SK-MEL-5 (CL10007)): 2
classification of cell line as Low(1), Medium(2) or High(3) sensitivity to compound ([2]; Melanoma SK-MEL-28 (CL10008)): 1
classification of cell line as Low(1), Medium(2) or High(3) sensitivity to compound ([2]; Melanoma UACC-62 (CL10020)): 3
classification of cell line as Low(1), Medium(2) or High(3) sensitivity to compound ([2]; Melanoma UACC-257 (CL10021)): 1
classification of cell line as Low(1), Medium(2) or High(3) sensitivity to compound ([2]; NSCLC A549/ATCC (CL1004)): 2
classification of cell line as Low(1), Medium(2) or High(3) sensitivity to compound ([2]; NSCLC EKVX (CL1008)): 1
classification of cell line as Low(1), Medium(2) or High(3) sensitivity to compound ([2]; NSCLC HOP-62 (CL1026)): 2
classification of cell line as Low(1), Medium(2) or High(3) sensitivity to compound ([2]; NSCLC HOP-92 (CL1029)): 2
classification of cell line as Low(1), Medium(2) or High(3) sensitivity to compound ([2]; NSCLC NCI-H226 CL1013): 2
sensitivity class NSCLC NCI-H23(I) CL1001 ([2]; cell line NSCLC NCI-H23(I), CL1001): 2
sensitivity class NSCLC NCI-H332M CL1017 ([2]; cell line NSCLC NCI-H332M, CL1017): 1
sensitivity class NSCLC NCI-H460 CL1021 ([2]; cell line NSCLC NCI-H460, CL1021): 3
sensitivity class NSCLC NCI-H522 CL1003 ([2]; cell line NSCLC NCI-H522, CL1003): 2
sensitivity class Ovarian IGROV1 CL6010 ([2]; cell line Ovarian IGROV1, CL6010): 2
sensitivity class Ovarian OVCAR-3 CL6001 ([2]; cell line Ovarian OVCAR-3, CL6001): 2
sensitivity class Ovarian OVCAR-4 CL6002 ([2]; cell line Ovarian OVCAR-4, CL6002): 1
sensitivity class Ovarian OVCAR-5 CL6003 ([2]; cell line Ovarian OVCAR-5, CL6003): 2
sensitivity class Ovarian OVCAR-8 CL6005 ([2]; cell line Ovarian OVCAR-8, CL6005): 2
sensitivity class Ovarian SK-OV-3 CL6011 ([2]; cell line Ovarian SK-OV-3, CL6011): 1
sensitivity class Prostate DU-145 CL11003 ([2]; cell line Prostate DU-145, CL11003): 2
sensitivity class Prostate PC-3(I) CL11001 ([2]; cell line Prostate PC-3(I), CL11001): 2
sensitivity class Renal 786-O CL9018 ([2]; cell line Renal 786-O, CL9018): 2
sensitivity class Renal A498 CL9013 ([2]; cell line Renal A498, CL9013): 2
sensitivity class Renal ACHN CL9023 ([2]; cell line Renal ACHN, CL9023): 3
sensitivity class Renal CAKI-1 CL9015 ([2]; cell line Renal CAKI-1, CL9015): 3
sensitivity class Renal RXF-393 CL9016 ([2]; cell line Renal RXF-393, CL9016): 2
sensitivity class Renal SN12C CL9008 ([2]; cell line Renal SN12C, CL9008): 2
sensitivity class Renal TK10 CL9024 ([2]; cell line Renal TK10, CL9024): 1
sensitivity class Renal UO-31 CL9004 ([2]; cell line Renal UO-31, CL9004): 2
